Results on one molecule are retold here after patent US20090062255A1, “TUMOR-TARGETING EVALUATION METHODOLOGY AND COMPOUNDS RELATED THERETO” (THALLION PHARMACEUTICALS INC., priority 2007, published 2009).

The subject of one experiment is 9L gliosarcoma cell line. Briefly: MTT cytotoxicity, 9L cell line. The format is cell-based. As to conditions: 96 h, Rat. As to the method: (§1) The cytotoxic activity of Compound 1 was further evaluated using a panel of brain tumor cell lines. This study was performed in collaboration with INSERM (Grenoble, France). Tumor cells (5,000 to 10,000 cells per well depending on their doubling time) were plated in 96-well flat-bottom plates and incubated for 24 hours before treatment. Tumor cells were then incubated for 96 hours with seven different concentrations of Compound 1: […], 0.01, and 0.001 μM. The in vitro cytotoxic activity was determined by a standard MTT assay.

In experiment [1] the test system is U 373 astrocytoma cell line. The experiment can be described thus: MTT cytotoxicity, U 373 cell line. To be noted: U373 MG, 96 h, Human. In kind it is cell-based. The procedure: as §1
In experiment [2] the test system is GL26 glioblastoma cell line. The experiment can be described thus: MTT cytotoxicity, GL26 cell line. As to conditions: 96 h, Human. The format is cell-based. As to the method: as §1
The test system of experiment [3] is DN oligodendroglioma cell line. The experiment can be described thus: MTT cytotoxicity, DN cell line. To be noted: 96 h, Human. The format is cell-based. The procedure:
as §1

A further experiment has as its target T1, PBR (Rattus norvegicus, UniProt P16257).
T1 construct: from tissue; host or cells: orthotopic rat C6 glioma in Sprague-Dawley rats, in vivo
Briefly: In vivo PBR occupancy by PET (11C-(R)-PK11195) following IP administration. As to conditions: 30 mg/kg IP, 30 min before scan, mean±S.D. As to the method: (R)-1-(2-chlorophenyl)-N-methyl-N-(1-methyl-propyl)-3-isoquinoline carboxamide (R N-desmethyl PK11195), the precursor for the radioisotope-labeled (R) —PK11195, was purchased from ABX (Radeburg, Germany). The synthesis of ^11C-(R)-PK11195 was accomplished by a modification of the method of Camsonne et al. (J. Label. Compd. Radiopharm., 21: 985-991,1984). Briefly, ^11C-methyl iodide (^11C—CH3I) was transferred by a stream of nitrogen gas at a flow rate of 10 ml/min into a reaction medium containing 1 mg or R—N-desmethyl PK11195 previously dissolved in 0.5 mL of dimethylsulfoxide (DMSO) and about 20 mg of sodium hydroxide. The reaction was initiated at room temperature, with a bubbling of the ^11C—CH3I being continued over a 5 minute period. After bubbling was complete, the reaction mixture was left standing for 5 minutes. Purification was performed by high pressure liquid chromatography (HPLC) using a reverse-phase C18 column and a methanol:ammonium formate (20 mM) (80:20) mixture and a mobile phase at a flow rate of 3 mL/min. ^11C—(R) —PK11195 was eluted at 11 minutes and obtained with a specific radioactivity of […].
In vivo PET studies were performed 14 days post tumor implantation. […] Attenuation correction factors, for each rat (total of 7 animals), were determined using a 10 min ^57Co transmission scan acquired immediately prior to the dynamic scan. […]

A further experiment addresses T2, human EGFR (Homo sapiens, UniProt P00533).
T2 construct: purchased Upstate (Kinase Profiler Service; Dundee, UK)
Briefly: Upstate Kinase Profiler, EGFR. In kind it is biochemical. The procedure: Unlike current Ras signalling pathway inhibitors, ECO-4601 is not a direct kinase inhibitor. This was documented by evaluating the effect of ECO-4601 on human EGFR, c-RAF, MEK1, MAPK1 (ERK1) and MAPK2 (ERK2) kinase-activity (Upstate Kinase Profiler™ Service; Dundee, UK). ECO-4601 was tested at 0.5 μM and 5 μM in a final volume of 25 μL according to standard protocols developed by Upstate Ltd. Briefly, purified recombinant human enzymes were incubated with 25 mM Tris pH 7.5 containing EGTA, a specific substrate and γ-^32P-ATP. The reaction was initiated with MgATP mix and incubated for 40 minutes at RT. The reaction was stopped by the addition of 5 μL of a 3% phosphoric acid solution; aliquots were spotted on filters and counted. Detailed procedures are available on the Millipore Upstate website.

Another experiment concerns Raf-1. Briefly: Raf-1 protein levels in MiaPaCa-2 tumors (Western blot). In kind it is in vivo, mice. As to conditions: 20 mg/kg SC daily for 5 days. As to the method: In this model, it was verified if there was an association between antitumor activity and inhibition of the Ras-MAPK pathway. In parallel to the antitumor study described above, two additional groups of 5 mice were treated SC with vehicle or 20 mg/kg ECO-4601, administered daily for 5 days. Animals from these two groups were sacrificed two hours on day 5 of treatment. As shown by quantification of Western blot analysis (FIG. 13), Raf-1 levels were reduced in MiaPaCa-2 tumors obtained from animals treated with ECO-4601 compared with the vehicle-treated animals.
A general note: Immunoblotting shows a protein as a band on a membrane.

Experiment [4] relates to human breast cell line MDA-MB-231. Briefly: Growth inhibitory MTT assay, MDA-MB-231. As to conditions: 72 hours, treated over control. The format is cell-based. As to the method:
Growth inhibitory activity of ECO-4601 (Compound 1) and other dibenzodiazepinone analogs was evaluated on a panel of 4 human tumor cell lines: the human uterine sarcoma MES-SA and its doxorubicin-resistant P-glycoprotein over-expressing variant, MES-SA/DX5 as well as non-aggressive and highly aggressive human breast cell lines, MCF-7 and MDA-MB-231, respectively. These four cell lines were obtained from the American Type Culture Collection (Manassas, Va.) and cultured in RPMI plus 10% fetal bovine serum (FBS) and maintained at 37° C. with 5% CO2.
Exponentially growing cells (5,000 cells per well time; cell number determined with a hemocytometer) were seeded in 96-well flat-bottom plates and allowed to grow overnight. Cells were then incubated for 72 hours with three different concentrations of ECO-4601 or analogs: 30,10, and 3 μM. The in vitro growth inhibitory activity was determined by a commercial MTT assay. All measurements were done in quadruplicate and each experiment was performed 2-3 times. The lower the value, the more cytotoxic is the compound.

T2 sequence (P00533 25-1210): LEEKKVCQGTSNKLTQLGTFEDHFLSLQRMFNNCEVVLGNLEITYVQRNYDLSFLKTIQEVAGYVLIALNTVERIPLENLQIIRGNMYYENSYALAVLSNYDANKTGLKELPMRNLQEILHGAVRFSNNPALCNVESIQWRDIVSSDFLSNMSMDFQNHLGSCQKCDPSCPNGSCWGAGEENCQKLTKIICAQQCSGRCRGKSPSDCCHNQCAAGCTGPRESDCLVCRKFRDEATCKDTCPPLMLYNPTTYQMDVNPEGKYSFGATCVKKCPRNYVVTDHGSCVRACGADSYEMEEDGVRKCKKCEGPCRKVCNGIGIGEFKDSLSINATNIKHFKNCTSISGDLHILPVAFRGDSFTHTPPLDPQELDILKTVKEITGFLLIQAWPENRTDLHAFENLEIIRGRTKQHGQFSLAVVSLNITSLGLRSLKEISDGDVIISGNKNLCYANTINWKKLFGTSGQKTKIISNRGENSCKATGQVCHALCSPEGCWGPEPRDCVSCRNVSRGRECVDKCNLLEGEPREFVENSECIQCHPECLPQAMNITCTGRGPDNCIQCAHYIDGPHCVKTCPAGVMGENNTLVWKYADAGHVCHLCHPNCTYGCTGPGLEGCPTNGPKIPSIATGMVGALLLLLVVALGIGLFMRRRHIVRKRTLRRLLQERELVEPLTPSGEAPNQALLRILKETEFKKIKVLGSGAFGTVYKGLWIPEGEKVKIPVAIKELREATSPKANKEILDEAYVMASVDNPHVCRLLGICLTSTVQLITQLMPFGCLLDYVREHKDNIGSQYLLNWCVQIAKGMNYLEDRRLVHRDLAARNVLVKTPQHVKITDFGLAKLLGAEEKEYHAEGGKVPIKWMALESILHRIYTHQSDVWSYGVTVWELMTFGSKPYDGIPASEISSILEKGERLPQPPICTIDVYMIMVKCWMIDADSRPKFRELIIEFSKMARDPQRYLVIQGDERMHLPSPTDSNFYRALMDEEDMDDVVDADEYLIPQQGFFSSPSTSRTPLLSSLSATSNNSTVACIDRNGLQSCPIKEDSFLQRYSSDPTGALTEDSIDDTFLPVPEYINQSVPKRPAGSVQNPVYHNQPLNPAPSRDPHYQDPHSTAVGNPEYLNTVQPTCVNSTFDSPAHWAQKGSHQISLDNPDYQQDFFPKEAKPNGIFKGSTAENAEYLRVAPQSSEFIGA

`CC(C)=CCC/C(C)=C/CC/C(C)=C/CN1C(=O)c2cccc(O)c2Nc2c(O)cc(O)cc21` [Compound 1, 10-farnesyl-4,6,8-trihydroxy-5,10-dihydrodibenzo[b,e][1,4]diazepin-11-one]: the 50% inhibitory concentration (IC50) in the experiment with 9L gliosarcoma cell line stood at 8.3 ± 3.8 µM; in experiment [1], 3.8 ± 1.4 µM; in experiment [2], 8.9 ± 1.1 µM; in experiment [3], 3 ± 0.7 µM. Besides, at PBR, the “mean tumor binding potential (B.P.) after compound” value is listed as 1.05±0.34. Moreover, the “direct inhibition of EGFR kinase activity (in words)” value on human EGFR (0.5 μM and 5 μM) is “does not directly inhibit”. Moreover, at human EGFR (EGFR, 0.5 μM, % of enzyme activity over positive control, read-out: Kinase Activity (%) ± SD), the activity at 0.5 µM worked out at 128 ± 6%. Moreover, at human EGFR (EGFR, 5 μM, % of enzyme activity over positive control, read-out: Kinase Activity (%) ± SD), the activity at 5 µM stood at 127 ± 9%. In addition, in the experiment on Raf-1, the “Raf-1 levels in MiaPaCa-2 tumors versus vehicle-treated animals” value is on record as “reduced”. The “% T/C at 10 μM” value in experiment [4] came out at 38%.

Usually IC50 stands for the concentration that gives 50% inhibition. A low value points to inhibition by little substance.
